Source: ChEMBL document CHEMBL5291721, “A preclinical secondary pharmacology resource illuminates target-adverse drug reaction associations of marketed drugs” (Nat Commun, 2023)

Columns and labels:
D(1A) dopamine receptor = D(1A) dopamine receptor (Homo sapiens, UniProt P21728)
[1] = biological target: Gamma-aminobutyric acid receptor subunit alpha-1 (Rattus norvegicus, UniProt P62813)
[2] = biological target: T1, Amine oxidase [flavin-containing] A (Homo sapiens, UniProt P21397); assay type: functional
T1 sequence (P21397 whole entry): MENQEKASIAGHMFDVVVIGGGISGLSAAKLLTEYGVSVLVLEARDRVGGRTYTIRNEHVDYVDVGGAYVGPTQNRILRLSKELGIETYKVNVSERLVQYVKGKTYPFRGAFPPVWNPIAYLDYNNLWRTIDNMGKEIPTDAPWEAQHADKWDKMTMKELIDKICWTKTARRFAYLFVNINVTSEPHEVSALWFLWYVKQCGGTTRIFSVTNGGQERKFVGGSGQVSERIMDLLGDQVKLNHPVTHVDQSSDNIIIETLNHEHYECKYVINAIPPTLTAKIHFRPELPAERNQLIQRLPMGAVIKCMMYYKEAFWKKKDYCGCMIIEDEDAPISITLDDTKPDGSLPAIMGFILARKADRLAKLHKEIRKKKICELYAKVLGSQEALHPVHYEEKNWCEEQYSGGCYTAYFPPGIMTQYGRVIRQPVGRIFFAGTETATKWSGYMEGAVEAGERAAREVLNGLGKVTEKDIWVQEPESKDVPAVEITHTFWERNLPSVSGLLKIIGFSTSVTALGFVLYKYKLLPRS

Mu-type opioid receptor = Mu-type opioid receptor (Homo sapiens, UniProt P35372)
[3] = biological target: Prostaglandin G/H synthase 1 (Homo sapiens, UniProt P23219); assay type: functional
[4] = biological target: Sodium-dependent noradrenaline transporter (Homo sapiens, UniProt P23975)
[5] = biological target: Sodium-dependent serotonin transporter (Homo sapiens, UniProt P31645)
[6] = biological target: T2, Alpha-1A adrenergic receptor (Homo sapiens, UniProt P35348); assay type: functional, cell-based
T2 sequence (P35348 whole entry): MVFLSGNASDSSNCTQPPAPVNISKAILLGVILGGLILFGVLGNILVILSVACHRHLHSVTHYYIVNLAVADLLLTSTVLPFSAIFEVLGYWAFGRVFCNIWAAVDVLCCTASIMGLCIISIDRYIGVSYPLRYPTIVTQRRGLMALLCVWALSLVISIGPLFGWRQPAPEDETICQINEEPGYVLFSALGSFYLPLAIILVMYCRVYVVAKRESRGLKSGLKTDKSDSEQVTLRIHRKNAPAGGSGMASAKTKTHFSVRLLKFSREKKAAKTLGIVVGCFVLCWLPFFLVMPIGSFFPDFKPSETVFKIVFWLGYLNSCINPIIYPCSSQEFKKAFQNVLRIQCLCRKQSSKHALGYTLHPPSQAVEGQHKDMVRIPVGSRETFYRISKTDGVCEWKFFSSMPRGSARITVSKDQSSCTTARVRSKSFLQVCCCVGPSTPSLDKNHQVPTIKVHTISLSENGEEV

[7] = biological target: T3, Muscarinic acetylcholine receptor M1 (Homo sapiens, UniProt P11229); assay type: functional, cell-based
T3 sequence (P11229 whole entry): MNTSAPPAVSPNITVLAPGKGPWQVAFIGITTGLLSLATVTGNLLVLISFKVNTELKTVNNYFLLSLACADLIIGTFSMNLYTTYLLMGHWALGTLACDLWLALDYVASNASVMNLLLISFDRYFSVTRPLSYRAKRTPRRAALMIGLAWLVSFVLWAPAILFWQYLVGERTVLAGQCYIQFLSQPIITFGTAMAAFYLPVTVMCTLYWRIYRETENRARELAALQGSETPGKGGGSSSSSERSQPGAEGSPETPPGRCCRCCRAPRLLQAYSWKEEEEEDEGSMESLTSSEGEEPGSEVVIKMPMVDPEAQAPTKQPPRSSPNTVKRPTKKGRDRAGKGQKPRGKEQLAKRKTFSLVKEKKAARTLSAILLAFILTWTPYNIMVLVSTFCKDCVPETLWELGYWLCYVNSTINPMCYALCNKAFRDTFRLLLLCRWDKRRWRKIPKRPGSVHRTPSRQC

[8] = biological target: T3, Muscarinic acetylcholine receptor M1; assay type: functional, cell-based; remark: listed apart in the source
[9] = biological target: Vascular endothelial growth factor receptor 2 (Homo sapiens, UniProt P35968); assay type: functional
Further: assay procedure not described here.

Sequence of Vascular endothelial growth factor receptor 2 (P35968 whole entry): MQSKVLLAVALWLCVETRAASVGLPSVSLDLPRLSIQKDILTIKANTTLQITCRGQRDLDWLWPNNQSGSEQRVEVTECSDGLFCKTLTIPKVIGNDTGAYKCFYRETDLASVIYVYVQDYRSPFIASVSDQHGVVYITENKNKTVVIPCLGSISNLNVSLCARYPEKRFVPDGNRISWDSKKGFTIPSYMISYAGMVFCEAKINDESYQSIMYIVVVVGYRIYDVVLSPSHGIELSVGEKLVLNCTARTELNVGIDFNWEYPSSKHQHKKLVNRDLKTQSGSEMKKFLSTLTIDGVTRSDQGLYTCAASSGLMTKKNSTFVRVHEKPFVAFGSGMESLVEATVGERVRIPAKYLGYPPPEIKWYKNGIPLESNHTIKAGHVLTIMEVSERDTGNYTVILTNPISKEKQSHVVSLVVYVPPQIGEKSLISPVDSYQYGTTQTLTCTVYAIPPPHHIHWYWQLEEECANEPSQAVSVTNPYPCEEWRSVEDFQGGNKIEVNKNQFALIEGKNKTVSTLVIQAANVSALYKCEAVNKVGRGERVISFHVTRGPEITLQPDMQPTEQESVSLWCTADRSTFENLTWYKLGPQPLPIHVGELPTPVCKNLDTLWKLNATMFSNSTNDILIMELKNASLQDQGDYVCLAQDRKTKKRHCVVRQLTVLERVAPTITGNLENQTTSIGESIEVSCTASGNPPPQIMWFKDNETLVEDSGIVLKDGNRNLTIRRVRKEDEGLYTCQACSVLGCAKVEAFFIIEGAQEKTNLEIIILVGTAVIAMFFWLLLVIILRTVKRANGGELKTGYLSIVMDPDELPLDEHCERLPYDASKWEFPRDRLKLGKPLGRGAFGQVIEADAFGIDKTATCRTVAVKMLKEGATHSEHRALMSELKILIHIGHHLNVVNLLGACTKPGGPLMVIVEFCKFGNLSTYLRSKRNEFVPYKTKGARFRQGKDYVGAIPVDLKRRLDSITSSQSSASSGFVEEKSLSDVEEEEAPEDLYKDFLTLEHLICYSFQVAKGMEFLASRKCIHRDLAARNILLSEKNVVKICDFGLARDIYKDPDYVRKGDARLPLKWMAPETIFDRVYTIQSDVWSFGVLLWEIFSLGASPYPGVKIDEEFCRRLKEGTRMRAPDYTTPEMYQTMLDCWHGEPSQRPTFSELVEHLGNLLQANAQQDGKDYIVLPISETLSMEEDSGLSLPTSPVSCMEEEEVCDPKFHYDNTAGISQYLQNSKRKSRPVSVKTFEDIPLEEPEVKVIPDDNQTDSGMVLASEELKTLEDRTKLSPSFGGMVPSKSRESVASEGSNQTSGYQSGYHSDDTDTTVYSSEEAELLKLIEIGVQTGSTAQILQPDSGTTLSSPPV
Sequence of D(1A) dopamine receptor (P21728 whole entry): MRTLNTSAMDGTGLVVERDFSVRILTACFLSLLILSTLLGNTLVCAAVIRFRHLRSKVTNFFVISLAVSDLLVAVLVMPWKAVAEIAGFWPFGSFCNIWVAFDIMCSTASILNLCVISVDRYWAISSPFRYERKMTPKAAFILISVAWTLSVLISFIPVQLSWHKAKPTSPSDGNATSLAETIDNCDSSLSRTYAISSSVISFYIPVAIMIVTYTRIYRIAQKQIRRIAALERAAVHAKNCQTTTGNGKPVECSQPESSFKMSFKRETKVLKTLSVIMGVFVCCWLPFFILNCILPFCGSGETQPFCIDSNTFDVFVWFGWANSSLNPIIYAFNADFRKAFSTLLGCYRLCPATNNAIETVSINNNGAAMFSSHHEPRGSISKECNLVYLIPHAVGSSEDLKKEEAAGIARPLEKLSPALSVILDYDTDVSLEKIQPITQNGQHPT
Sequence of Gamma-aminobutyric acid receptor subunit alpha-1 (P62813 whole entry): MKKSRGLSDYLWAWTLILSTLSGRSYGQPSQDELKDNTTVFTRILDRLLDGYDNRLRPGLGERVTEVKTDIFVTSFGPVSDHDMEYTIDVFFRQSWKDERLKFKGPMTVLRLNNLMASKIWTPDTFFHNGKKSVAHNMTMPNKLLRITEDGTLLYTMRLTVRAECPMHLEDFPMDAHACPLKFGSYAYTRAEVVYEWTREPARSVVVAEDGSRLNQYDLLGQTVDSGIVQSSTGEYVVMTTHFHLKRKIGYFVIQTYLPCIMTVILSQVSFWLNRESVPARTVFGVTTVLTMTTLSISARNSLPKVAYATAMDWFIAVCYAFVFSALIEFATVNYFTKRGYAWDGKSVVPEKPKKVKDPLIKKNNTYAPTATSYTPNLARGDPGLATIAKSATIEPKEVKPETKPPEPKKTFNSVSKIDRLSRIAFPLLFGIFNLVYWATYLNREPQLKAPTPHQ
Sequence of Sodium-dependent serotonin transporter (P31645 whole entry): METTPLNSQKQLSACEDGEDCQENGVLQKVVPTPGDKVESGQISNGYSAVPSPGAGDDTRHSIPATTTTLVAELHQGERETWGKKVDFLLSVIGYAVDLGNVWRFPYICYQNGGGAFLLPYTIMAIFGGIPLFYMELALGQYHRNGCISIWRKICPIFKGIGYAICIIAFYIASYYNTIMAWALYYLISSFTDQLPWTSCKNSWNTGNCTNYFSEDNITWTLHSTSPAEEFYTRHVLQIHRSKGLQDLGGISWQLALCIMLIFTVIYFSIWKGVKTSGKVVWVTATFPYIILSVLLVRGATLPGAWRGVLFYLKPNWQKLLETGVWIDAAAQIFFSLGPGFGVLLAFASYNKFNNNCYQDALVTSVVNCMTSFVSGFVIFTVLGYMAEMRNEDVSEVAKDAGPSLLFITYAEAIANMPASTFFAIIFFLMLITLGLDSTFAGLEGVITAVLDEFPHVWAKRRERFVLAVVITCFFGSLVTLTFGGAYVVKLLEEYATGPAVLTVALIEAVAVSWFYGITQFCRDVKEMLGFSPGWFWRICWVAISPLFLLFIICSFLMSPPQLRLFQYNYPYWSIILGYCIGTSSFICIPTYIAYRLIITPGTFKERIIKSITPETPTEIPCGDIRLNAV
Sequence of Prostaglandin G/H synthase 1 (P23219 whole entry): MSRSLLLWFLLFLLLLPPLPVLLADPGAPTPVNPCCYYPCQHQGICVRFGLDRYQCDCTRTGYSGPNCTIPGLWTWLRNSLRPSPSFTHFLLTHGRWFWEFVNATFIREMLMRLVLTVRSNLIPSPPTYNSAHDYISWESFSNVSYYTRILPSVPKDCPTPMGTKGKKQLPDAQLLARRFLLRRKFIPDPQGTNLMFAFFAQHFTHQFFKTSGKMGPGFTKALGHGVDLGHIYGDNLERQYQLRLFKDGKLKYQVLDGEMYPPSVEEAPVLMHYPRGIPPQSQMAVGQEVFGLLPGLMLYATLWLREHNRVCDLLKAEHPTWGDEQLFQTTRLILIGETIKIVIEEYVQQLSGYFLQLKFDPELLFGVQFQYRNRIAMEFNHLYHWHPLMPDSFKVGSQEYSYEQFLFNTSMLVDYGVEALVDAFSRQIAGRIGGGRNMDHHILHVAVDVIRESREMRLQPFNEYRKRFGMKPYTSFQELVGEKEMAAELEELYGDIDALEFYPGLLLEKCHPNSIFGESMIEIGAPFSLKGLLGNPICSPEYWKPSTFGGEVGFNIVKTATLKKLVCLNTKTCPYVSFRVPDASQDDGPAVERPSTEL
Sequence of Sodium-dependent noradrenaline transporter (P23975 whole entry): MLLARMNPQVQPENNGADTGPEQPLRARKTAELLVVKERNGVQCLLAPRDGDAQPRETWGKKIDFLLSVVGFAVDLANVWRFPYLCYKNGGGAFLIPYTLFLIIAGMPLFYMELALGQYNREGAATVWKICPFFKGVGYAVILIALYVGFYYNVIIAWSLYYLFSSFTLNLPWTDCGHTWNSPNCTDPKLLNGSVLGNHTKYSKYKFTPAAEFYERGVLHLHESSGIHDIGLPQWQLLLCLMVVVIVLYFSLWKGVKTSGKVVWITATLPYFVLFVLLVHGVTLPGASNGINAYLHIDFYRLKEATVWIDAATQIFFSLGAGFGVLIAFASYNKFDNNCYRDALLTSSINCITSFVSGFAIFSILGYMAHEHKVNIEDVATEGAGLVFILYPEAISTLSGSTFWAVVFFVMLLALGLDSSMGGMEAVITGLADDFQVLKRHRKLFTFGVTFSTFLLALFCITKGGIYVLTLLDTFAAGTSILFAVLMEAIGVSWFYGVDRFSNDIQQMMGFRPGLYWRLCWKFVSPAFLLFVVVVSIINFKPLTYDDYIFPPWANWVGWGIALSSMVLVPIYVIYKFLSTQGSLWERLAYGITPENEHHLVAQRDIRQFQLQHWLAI
Sequence of Mu-type opioid receptor (P35372 whole entry): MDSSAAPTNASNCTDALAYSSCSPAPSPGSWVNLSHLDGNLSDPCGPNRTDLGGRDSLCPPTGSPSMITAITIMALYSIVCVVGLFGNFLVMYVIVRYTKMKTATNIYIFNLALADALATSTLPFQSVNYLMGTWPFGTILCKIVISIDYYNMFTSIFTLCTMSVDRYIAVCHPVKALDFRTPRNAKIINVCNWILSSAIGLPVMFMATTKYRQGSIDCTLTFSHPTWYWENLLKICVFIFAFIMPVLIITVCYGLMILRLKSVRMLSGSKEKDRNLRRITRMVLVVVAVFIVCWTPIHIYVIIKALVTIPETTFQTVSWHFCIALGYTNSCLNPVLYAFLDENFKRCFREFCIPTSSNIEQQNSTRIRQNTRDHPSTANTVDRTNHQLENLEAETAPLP

AC50 [6] [µM] | SMILES | AC50 (D(1A) dopamine receptor) [µM] | AC50 [1] [µM] | AC50 [2] [µM] | AC50 (Mu-type opioid receptor) [µM] | AC50 [3] [µM] | AC50 [4] [µM] | AC50 [5] [µM] | AC50 [7] [µM] | AC50 [8] [µM] | AC50 [9] [µM]
– | CSCC[C@H](N)C(=O)O [METHIONINE] | > 30 | > 30 | > 30 | > 30 | > 30 | > 30 | > 30 | – | – | –
> 30 | CC(C)(Oc1ccc(Cl)cc1)C(=O)OCCOC(=O)c1cccnc1 [ETOFIBRATE] | – | – | – | – | – | – | – | – | – | –
– | CC(C)Cc1ccc(C(C)C(=O)OCc2ccccn2)cc1 (stereo unspecified) [IBUPROFEN PICONOL] | > 30 | > 30 | > 30 | > 30 | > 30 | 22.1 | > 30 | > 30 | > 10 | > 30
– | CC1=C(/C=C/C(C)=C\C=C\C(C)=C\C(=O)O)C(C)(C)CCC1 [ALITRETINOIN] | > 30 | > 30 | > 30 | > 30 | – | > 30 | – | – | – | > 30
> 30 | COc1ccc(-c2cc(=S)ss2)cc1 [ANETHOLTRITHION] | – | – | – | – | – | – | – | – | – | –
– | COc1cccc2c1C(=O)c1c(O)c3c(c(O)c1C2=O)C[C@@](O)(C(=O)CO)C[C@@H]3O[C@H]1C[C@H](N)[C@@H](O)[C@H](C)O1 [EPIRUBICIN] | > 30 | > 30 | > 30 | > 30 | > 30 | > 30 | – | – | – | –
– | CC(C)NC[C@H](O)COc1ccc(CCOCC2CC2)cc1 [LEVOBETAXOLOL] | > 30 | > 30 | > 30 | > 30 | > 30 | > 30 | > 30 | > 30 | > 30 | > 30
– | CC1(C)CCC(C)(C)c2cc(NC(=O)c3ccc(C(=O)O)cc3)ccc21 [TAMIBAROTENE] | > 30 | > 30 | > 30 | > 30 | > 30 | > 30 | > 30 | > 30 | > 10 | –
> 30 | C[C@]12CCC(=O)C=C1[C@@H]1C[C@@H]1[C@H]1[C@@H]3[C@@H]4C[C@@H]4[C@@]4(CCC(=O)O4)[C@@]3(C)CC[C@@H]12 [DROSPIRENONE] | – | – | – | – | – | – | – | – | – | –
– | CN1CCc2c(c3ccccc3n2Cc2ccccc2)C1 [MEBHYDROLIN] | 1.98 | 25.4 | > 30 | 18.7 | > 30 | 8.13 | 28.5 | > 30 | 1.96 | > 30
– | CC(=O)OCC(=O)[C@@]1(O)CC[C@H]2[C@@H]3C[C@H](C)C4=CC(=O)C=C[C@]4(C)[C@H]3[C@@H](O)C[C@@]21C [METHYLPREDNISOLONE ACETATE] | > 30 | > 30 | > 30 | > 30 | > 30 | > 30 | > 30 | > 30 | > 30 | –
– | N[C@@H](Cc1ccc(O)cc1)C(=O)O [TYROSINE] | > 30 | > 30 | > 30 | > 30 | > 30 | > 30 | > 30 | > 30 | > 30 | > 30
> 30 | C[C@]12C=CC(=O)C=C1CC[C@@H]1[C@@H]2[C@@H](O)C[C@@]2(C)[C@H]1CC[C@]2(O)C(=O)CO [PREDNISOLONE] | – | – | – | – | – | – | – | – | – | –
– | O=C1Nc2ccccc2C1(c1ccc(O)cc1)c1ccc(O)cc1 [OXYPHENISATINE] | > 30 | > 30 | > 30 | > 30 | > 30 | > 30 | > 30 | > 30 | > 30 | > 30
– | CC1=C(/C=C/C(C)=C/C=C/C(C)=C\C(=O)O)C(C)(C)CCC1 [ISOTRETINOIN] | > 30 | > 30 | > 30 | > 30 | – | > 30 | – | – | – | > 30
– | O=C(OOC(=O)c1ccccc1)c1ccccc1 [BENZOYL PEROXIDE] | > 30 | > 30 | > 30 | > 30 | > 30 | > 30 | > 30 | > 30 | > 30 | –
– | CC(=O)Nc1ccc(/C=N/NC(N)=S)cc1 [AMITHIOZONE] | > 30 | > 30 | > 10 | > 30 | > 30 | > 30 | > 30 | – | – | –
– | CNC(=O)c1cnn(-c2nc(N)c3ncn([C@@H]4O[C@H](CO)[C@@H](O)[C@H]4O)c3n2)c1 [REGADENOSON ANHYDROUS] | > 30 | > 30 | > 30 | > 30 | > 30 | > 30 | > 30 | > 30 | > 30 | –
> 30 | C[C@]12C=CC(=O)C=C1C(Cl)=C[C@@H]1[C@@H]2[C@@H](O)C[C@@]2(C)[C@H]1CC[C@]2(O)C(=O)CO [CLOPREDNOL] | – | – | – | – | – | – | – | – | – | –
– | CC(C)=CCC/C(C)=C/CC/C(C)=C/CC/C(C)=C/CC1=C(C)C(=O)c2ccccc2C1=O [MENATETRENONE] | > 30 | > 30 | > 30 | > 30 | 13.5 | > 30 | > 30 | > 30 | > 30 | > 30
– | Cc1cccc(C)c1NC(=O)CN(CC(=O)O)CC(=O)O [LIDOFENIN] | > 30 | > 30 | > 30 | > 30 | > 30 | > 30 | > 30 | > 30 | > 30 | > 30
> 30 | CN(C)[C@@H]1C(O)=C(C(=O)NCN2CCCC2)C(=O)[C@@]2(O)C(O)=C3C(=O)c4c(O)cccc4[C@@](C)(O)[C@H]3C[C@@H]12 [ROLITETRACYCLINE] | – | – | – | – | – | – | – | – | – | –
> 30 | C[C@]12CCC(=O)C=C1C=C[C@@H]1[C@@H]2CC[C@@]2(C)[C@H]1CC[C@@]21CCC(=O)O1 [CANRENONE] | – | – | – | – | – | – | – | – | – | –
– | Cn1c(CCCC(=O)O)nc2cc(N(CCCl)CCCl)ccc21 [BENDAMUSTINE] | > 30 | > 30 | > 30 | > 30 | > 30 | > 30 | > 30 | > 30 | > 30 | –
– | CC(=O)OC1CN2CCC1CC2 (stereo unspecified) [ACECLIDINE] | > 30 | > 30 | > 30 | > 30 | > 30 | > 30 | > 30 | – | – | –

SMILES | AC50 [6] [µM] | AC50 (D(1A) dopamine receptor) [µM] | AC50 [1] [µM] | AC50 [2] [µM] | AC50 (Mu-type opioid receptor) [µM] | AC50 [3] [µM] | AC50 [4] [µM] | AC50 [5] [µM] | AC50 [7] [µM] | AC50 [8] [µM] | AC50 [9] [µM]
N=C(N)NC(=O)c1nc(Cl)c(N)nc1N [AMILORIDE] | > 30 | > 30 | > 30 | 5.24 | > 30 | > 30 | > 30 | – | – | – | –
COc1cccc2c1C(=O)c1c(O)c3c(c(O)c1C2=O)C[C@@](O)(C(=O)CO)C[C@@H]3O[C@H]1C[C@H](N)[C@H](O)[C@H](C)O1 [DOXORUBICIN] | 16 | > 30 | > 30 | > 30 | > 30 | > 30 | > 30 | – | – | – | –
Oc1cc(Cl)ccc1Oc1ccc(Cl)cc1Cl [TRICLOSAN] | > 30 | – | – | – | – | – | – | – | – | – | –
